Tests used:
B. subtilis 168 [1] = assay: fitness (endpoint OD595 vs no drug) (fraction); higher = more growth
How it was run: (§1)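 Plates with 384 wells were inoculated at OD595 0.01 using 30 µl of TSB, LB Lennox or CY, or 55 µl for S. pneumoniae. Incubation was at 37 °C, with OD595 measured every 30 min for 14 h. Fitness is the stationary-phase transition optical density over the robust mean of no-drug control wells, after first-reading background subtraction; it is capped at 1.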

S. pneumoniae D39V [2] = assay: as above
How it was run: as §1

S. aureus Newman [3] = assay: as above
How it was run: as §1

S. aureus DSM 20231 [4] = assay: as above
How it was run: as §1

B. subtilis 168 [5] = assay: Bliss interaction score (quartile over a dose matrix) (fitness difference); higher = more antagonism (negative = synergy)
How it was run: (§2)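 The Bliss score takes observed fitness and subtracts the expected fitness, calculated as a product of single-drug fitness values. Those single-drug values were inferred from the combination data. Fitness is OD595 at entry into stationary phase divided by the plate's robust no-drug mean, capped at 1, and the score is summarised by quartiles across technical, biological and donor/recipient replicates.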

S. pneumoniae D39V [6] = assay: as above
How it was run: as §2

S. aureus Newman [7] = assay: as above
How it was run: as §2

S. aureus DSM 20231 [8] = assay: as above
How it was run: as §2
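Wherever Bliss interaction score (quartile over a dose matrix) is given: first quartile when negative (synergy) and third quartile when positive (antagonism).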

COc1cccc2c1C(=O)c1c(O)c3c(c(O)c1C2=O)C[C@@](O)(C(=O)CO)C[C@@H]3O[C@H]1C[C@H](N)[C@H](O)[C@H](C)O1 [Doxorubicin] + CN[C@@H]1[C@H](O)[C@H](NC)[C@H]2O[C@@]3(O)C(=O)C[C@@H](C)O[C@H]3O[C@@H]2[C@H]1O [Spectinomycin]
fitness
Conditions | first compound 0.25 µg/mL | first compound 0.5 µg/mL | first compound 0.625 µg/mL | first compound 1 µg/mL | first compound 1.25 µg/mL | first compound 2.5 µg/mL
B. subtilis 168 [1], partner 2 µg/mL | – | – | 0.919 | – | 0.905 | 0.62
B. subtilis 168 [1], partner 4 µg/mL | – | – | 0.965 | – | 0.954 | 0.594
B. subtilis 168 [1], partner 8 µg/mL | – | – | 0.817 | – | 0.88 | 0.615
S. aureus DSM 20231 [4], partner 4 µg/mL | – | – | 0.901 | – | 0.846 | 0.808
S. aureus DSM 20231 [4], partner 8 µg/mL | – | – | 0.882 | – | 0.89 | 0.84
S. aureus DSM 20231 [4], partner 16 µg/mL | – | – | 0.789 | – | 0.824 | 0.736
S. aureus Newman [3], partner 4 µg/mL | – | – | 0.796 | – | 0.754 | 0.71
S. aureus Newman [3], partner 8 µg/mL | – | – | 0.797 | – | 0.762 | 0.681
S. aureus Newman [3], partner 16 µg/mL | – | – | 0.713 | – | 0.623 | 0.577
S. pneumoniae D39V [2], partner 4 µg/mL | 0.908 | 0.938 | – | 0.921 | – | –
S. pneumoniae D39V [2], partner 8 µg/mL | 0.827 | 0.862 | – | 0.838 | – | –
S. pneumoniae D39V [2], partner 16 µg/mL | 0.686 | 0.661 | – | 0.632 | – | –

fitness, one replicate
Conditions | first compound 0.625 µg/mL | first compound 1.25 µg/mL | first compound 2.5 µg/mL
S. aureus DSM 20231 [4], partner 32 µg/mL | 0.768 | 0.732 | 0.624
S. aureus DSM 20231 [4], partner 64 µg/mL | 0.0549 | 0.0594 | 0.0266
S. aureus Newman [3], partner 32 µg/mL | 0.549 | 0.394 | 0.215
S. aureus Newman [3], partner 64 µg/mL | 0.0592 | 0.0432 | 0.0224

Conditions | Bliss interaction score
B. subtilis 168 [5] | 0.0605
S. aureus DSM 20231 [8] | -0.0571
S. aureus Newman [7] | -0.0787
S. pneumoniae D39V [6] | 0.0399

COc1cccc2c1C(=O)c1c(O)c3c(c(O)c1C2=O)C[C@@](O)(C(=O)CO)C[C@@H]3O[C@H]1C[C@H](N)[C@H](O)[C@H](C)O1 [Doxorubicin] + COc1c(N2C[C@@H]3CCCN[C@@H]3C2)c(F)cc2c(=O)c(C(=O)O)cn(C3CC3)c12 [Moxifloxacin]
fitness
Conditions | first compound 0.25 µg/mL | first compound 0.5 µg/mL | first compound 0.625 µg/mL | first compound 1 µg/mL | first compound 1.25 µg/mL | first compound 2.5 µg/mL
B. subtilis 168 [1], partner 0.0312 µg/mL | – | – | 0.0436 | – | 0.0321 | 0.0239
B. subtilis 168 [1], partner 0.0625 µg/mL | – | – | 0.0396 | – | 0.0329 | 0.0327
B. subtilis 168 [1], partner 0.125 µg/mL | – | – | 0.0249 | – | 0.0462 | 0.026
B. subtilis 168 [1], partner 2 µg/mL | – | – | 0.0338 | – | 0.0341 | 0.0223
B. subtilis 168 [1], partner 4 µg/mL | – | – | 0.0299 | – | 0.0351 | 0.0369
B. subtilis 168 [1], partner 8 µg/mL | – | – | 0.0347 | – | 0.0318 | 0.0314
S. aureus DSM 20231 [4], partner 0.0075 µg/mL | – | – | 0.751 | – | 0.78 | 0.735
S. aureus DSM 20231 [4], partner 0.015 µg/mL | – | – | 0.759 | – | 0.764 | 0.706
S. aureus DSM 20231 [4], partner 0.03 µg/mL | – | – | 0.623 | – | 0.631 | 0.618
S. aureus Newman [3], partner 0.0075 µg/mL | – | – | 0.756 | – | 0.722 | 0.659
S. aureus Newman [3], partner 0.015 µg/mL | – | – | 0.66 | – | 0.667 | 0.611
S. pneumoniae D39V [2], partner 0.005 µg/mL | 0.916 | 0.919 | – | 0.812 | – | –
S. pneumoniae D39V [2], partner 0.01 µg/mL | 0.955 | 0.911 | – | 0.857 | – | –
S. pneumoniae D39V [2], partner 0.02 µg/mL | 0.894 | 0.822 | – | 0.779 | – | –
S. pneumoniae D39V [2], partner 0.0312 µg/mL | 0.0684 | 0.0433 | – | 0.0394 | – | –
S. pneumoniae D39V [2], partner 0.0625 µg/mL | 0.0549 | 0.0614 | – | 0.0753 | – | –
S. pneumoniae D39V [2], partner 0.125 µg/mL | 0.0583 | 0.0523 | – | 0.0416 | – | –

fitness, S. aureus DSM 20231 [4], one replicate
Conditions | first compound 0.625 µg/mL | first compound 1.25 µg/mL | first compound 2.5 µg/mL
partner 0.06 µg/mL | 0.664 | 0.655 | 0.638
partner 0.12 µg/mL | 0.575 | 0.531 | 0.537

Conditions | Bliss interaction score
B. subtilis 168 [5] | -0.0247
S. aureus DSM 20231 [8] | 0.0448
S. aureus Newman [7] | 0.177
S. pneumoniae D39V [6] | -0.0668

Reference: the supplement of paper PMC10627819
